Article PMC3510196, “Cloning and Characterization of a P2X Receptor Expressed in the Central Nervous System of Lymnaea stagnalis” (PLoS ONE, 2012)

Columns and labels:
Experiment in all cases: two-electrode voltage clamp, Xenopus oocytes
Assay type in all cases: cell-based
[1] = target: T1, LymP2X (Lymnaea stagnalis, UniProt K7QP77)
T1 construct: full-length, 435 residues, shorter clone starting at second in-frame ATG; cRNA injected in Xenopus oocytes; homotrimer expected (P2X family); differs from contig FX193730 in 50 residues of the cysteine-rich head (possible alternative exon)
T1 sequence (K7QP77 1-435): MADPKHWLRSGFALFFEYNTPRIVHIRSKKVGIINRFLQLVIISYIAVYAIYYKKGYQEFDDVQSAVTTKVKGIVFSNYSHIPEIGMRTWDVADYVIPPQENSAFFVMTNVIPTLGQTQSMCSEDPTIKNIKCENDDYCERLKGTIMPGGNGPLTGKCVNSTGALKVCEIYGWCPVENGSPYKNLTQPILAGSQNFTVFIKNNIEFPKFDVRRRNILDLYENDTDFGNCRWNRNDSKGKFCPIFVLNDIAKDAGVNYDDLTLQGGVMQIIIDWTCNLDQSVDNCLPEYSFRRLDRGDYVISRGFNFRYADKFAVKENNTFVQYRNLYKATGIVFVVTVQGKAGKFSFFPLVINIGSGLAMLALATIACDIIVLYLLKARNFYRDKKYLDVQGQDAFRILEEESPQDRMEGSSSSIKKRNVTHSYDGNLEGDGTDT

[2] = target: T1, LymP2X; remark: listed apart in the source
[3] = target: T2, LymP2X clone 11 (Lymnaea stagnalis, UniProt K7QP77, INS0MTTK)
T2 construct: full-length plus N-terminal MTTK (upstream in-frame ATG at nucleotide 3) added to LymP2X (GenBank JX524180); Xenopus oocytes
T2 sequence (K7QP77 1-435 INS0MTTK): T1 sequence (K7QP77 1-435)

[4] = target: T1, LymP2X; conditions: weak agonist; pH 7.5, 1.8 mM Ba2+ in place of Ca2+, -60 mV

Compound: Cc1nc(N=Nc2ccc(S(=O)(=O)O)cc2S(=O)(=O)O)c(COP(=O)(O)O)c(C=O)c1O [PPADS]
- IC50 [1]: 8.1 µM

Compound: Nc1ncnc2c1ncn2[C@@H]1O[C@H](COP(=O)(O)OP(=O)(O)OP(=O)(O)O)[C@@H](O)[C@H]1O [ATP]
- EC50 [2]: 6.2 µM
- EC50 [3]: 5.8 µM

Compound: Nc1ncnc2c1ncn2[C@@H]1O[C@H](COP(=O)(O)CP(=O)(O)OP(=O)(O)O)[C@@H](O)[C@H]1O [αβmeATP]
- % of 10 μM ATP response at 100 μM [4]: 36.9±10.6%

Compound: Nc1ncnc2c1ncn2[C@@H]1O[C@H](COP(=O)(O)OP(=O)(O)OP(=O)(O)O)[C@@H](OC(=O)c2ccc(C(=O)c3ccccc3)cc2)[C@H]1O [BzATP]
- EC50 [2]: 2.4 µM

Compound: Cc1ccc(C(=O)Nc2ccc(S(=O)(=O)O)c3cc(S(=O)(=O)O)cc(S(=O)(=O)O)c23)cc1NC(=O)c1cccc(NC(=O)Nc2cccc(C(=O)Nc3cc(C(=O)Nc4ccc(S(=O)(=O)O)c5cc(S(=O)(=O)O)cc(S(=O)(=O)O)c45)ccc3C)c2)c1 [suramin]
- IC50 [1]: 27.4 µM
